Like-named read-outs stand apart in the source and are kept apart here.
Legend:
[1] = target: TYK2 (Homo sapiens, UniProt P29597); test: Caliper Mobility Shift Assay, kinase enzyme activity, TYK2; assay type: biochemical; settings: for inhibitory activity on TYK2 (in words): TYK2, summary of Table 1; for IC50: TYK2, read-out: Kinase inhibitory activity (IC50, nM) TYK2
Method: (§1) The half-inhibition concentration IC50 of the compound (the concentration of the compound required to inhibit the enzyme activity to 50%) is measured by mixing the fixed enzyme with a specific substrate and different concentrations of the test compound. The measurement method used was Caliper Mobility Shift Assay, the kinases measured were JAK1, JAK2, JAK3 and TYK2, and the standard reference compound used was staurosporine.

[2] = Pharmacokinetics experiment in mice (intravenous and oral); assay type: in vivo; settings: for F: 10 mg/kg oral vs 2 mg/kg intravenous; for AUC(0-t) / MRT inf / clearance / half-life / Vd / Cmax / Tmax: both sexes, mouse, blood, single dose; for half-life: read-out: Terminal t1/2 (converted); for Vd: read-out: Vss
Method: Experimental animals: mice, male and female, weight: 23-25 g;
Preparation of the test articles: The target compounds (Ig, Ii, and Ip) were prepared as 0.4 mg/mL (for intravenous administration) and 1.0 mg/mL (for oral administration), for later use. Administration route: oral administration/intravenous injection. Dosing volume and frequency: 5 mL/kg (intravenous injection) or 10 mL/kg (oral administration), single dose.
Sample collection: Blood was collected at the following time points, 5 min, 15 min, 30 min, 1 hr, 2 hr, 4 hr, 8 hr and 24 hr after administration.
Sample analysis: LC-MS/MS method was used to detect the collected samples. The instrument model used was Triple Quad 6500+.
Pharmacokinetic data analysis: WinNolin was used to fit and calculate the obtained blood drug concentration data according to the non-compartmental model method, and partial results are summarized in Table 2.

[3] = target: JAK2 (Homo sapiens, UniProt O60674); test: Caliper Mobility Shift Assay, kinase enzyme activity, JAK2; assay type: biochemical; settings: for inhibitory effect on kinase JAK2 (in words): JAK2, summary of Table 1; for IC50: JAK2, read-out: Kinase inhibitory activity (IC50, nM) JAK2
Method: as §1

[4] = target: T1, JAK3 (Homo sapiens, UniProt P52333); test: Caliper Mobility Shift Assay, kinase enzyme activity, JAK3; assay type: biochemical; settings: for inhibitory activity on JAK3 (in words): JAK3, summary of Table 1; for IC50: JAK3, read-out: Kinase inhibitory activity (IC50, nM) JAK3
T1 sequence (P52333 1-1124): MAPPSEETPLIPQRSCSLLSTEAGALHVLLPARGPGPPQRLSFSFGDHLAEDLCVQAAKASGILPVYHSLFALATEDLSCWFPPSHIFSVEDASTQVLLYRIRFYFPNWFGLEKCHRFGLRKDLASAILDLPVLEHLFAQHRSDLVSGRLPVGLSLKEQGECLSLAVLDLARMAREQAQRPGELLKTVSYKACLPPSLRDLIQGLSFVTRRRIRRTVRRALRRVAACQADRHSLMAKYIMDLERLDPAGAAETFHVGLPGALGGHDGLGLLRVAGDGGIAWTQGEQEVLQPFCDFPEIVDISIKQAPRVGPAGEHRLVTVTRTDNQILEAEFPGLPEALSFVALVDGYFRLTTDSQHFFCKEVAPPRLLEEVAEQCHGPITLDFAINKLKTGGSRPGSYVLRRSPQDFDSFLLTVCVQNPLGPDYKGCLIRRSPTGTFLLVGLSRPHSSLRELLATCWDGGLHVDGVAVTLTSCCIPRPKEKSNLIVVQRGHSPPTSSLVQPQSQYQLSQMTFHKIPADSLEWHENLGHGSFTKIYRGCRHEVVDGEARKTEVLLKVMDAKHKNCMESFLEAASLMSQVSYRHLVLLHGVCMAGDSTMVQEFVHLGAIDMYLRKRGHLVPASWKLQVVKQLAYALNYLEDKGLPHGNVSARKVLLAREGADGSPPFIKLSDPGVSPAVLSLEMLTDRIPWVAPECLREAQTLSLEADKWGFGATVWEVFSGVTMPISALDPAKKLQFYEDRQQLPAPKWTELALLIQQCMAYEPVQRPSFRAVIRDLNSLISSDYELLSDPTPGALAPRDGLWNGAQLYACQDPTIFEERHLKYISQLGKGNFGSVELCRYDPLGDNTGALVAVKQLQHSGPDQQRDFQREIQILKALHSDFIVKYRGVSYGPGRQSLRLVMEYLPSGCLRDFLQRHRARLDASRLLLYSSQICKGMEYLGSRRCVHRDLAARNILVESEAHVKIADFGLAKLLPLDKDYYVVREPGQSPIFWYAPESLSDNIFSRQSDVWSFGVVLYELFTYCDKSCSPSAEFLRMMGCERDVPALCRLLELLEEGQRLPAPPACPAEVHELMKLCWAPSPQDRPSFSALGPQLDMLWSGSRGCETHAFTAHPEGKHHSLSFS
Method: as §1

[5] = target: JAK1 (Homo sapiens, UniProt P23458); test: Caliper Mobility Shift Assay, kinase enzyme activity, JAK1; assay type: biochemical; settings: for inhibitory effect on kinase JAK1 (in words): JAK1, summary of Table 1; for IC50: JAK1, read-out: Kinase inhibitory activity (IC50, nM) JAK1
Method: as §1

JAK1, sequence (P23458 whole entry): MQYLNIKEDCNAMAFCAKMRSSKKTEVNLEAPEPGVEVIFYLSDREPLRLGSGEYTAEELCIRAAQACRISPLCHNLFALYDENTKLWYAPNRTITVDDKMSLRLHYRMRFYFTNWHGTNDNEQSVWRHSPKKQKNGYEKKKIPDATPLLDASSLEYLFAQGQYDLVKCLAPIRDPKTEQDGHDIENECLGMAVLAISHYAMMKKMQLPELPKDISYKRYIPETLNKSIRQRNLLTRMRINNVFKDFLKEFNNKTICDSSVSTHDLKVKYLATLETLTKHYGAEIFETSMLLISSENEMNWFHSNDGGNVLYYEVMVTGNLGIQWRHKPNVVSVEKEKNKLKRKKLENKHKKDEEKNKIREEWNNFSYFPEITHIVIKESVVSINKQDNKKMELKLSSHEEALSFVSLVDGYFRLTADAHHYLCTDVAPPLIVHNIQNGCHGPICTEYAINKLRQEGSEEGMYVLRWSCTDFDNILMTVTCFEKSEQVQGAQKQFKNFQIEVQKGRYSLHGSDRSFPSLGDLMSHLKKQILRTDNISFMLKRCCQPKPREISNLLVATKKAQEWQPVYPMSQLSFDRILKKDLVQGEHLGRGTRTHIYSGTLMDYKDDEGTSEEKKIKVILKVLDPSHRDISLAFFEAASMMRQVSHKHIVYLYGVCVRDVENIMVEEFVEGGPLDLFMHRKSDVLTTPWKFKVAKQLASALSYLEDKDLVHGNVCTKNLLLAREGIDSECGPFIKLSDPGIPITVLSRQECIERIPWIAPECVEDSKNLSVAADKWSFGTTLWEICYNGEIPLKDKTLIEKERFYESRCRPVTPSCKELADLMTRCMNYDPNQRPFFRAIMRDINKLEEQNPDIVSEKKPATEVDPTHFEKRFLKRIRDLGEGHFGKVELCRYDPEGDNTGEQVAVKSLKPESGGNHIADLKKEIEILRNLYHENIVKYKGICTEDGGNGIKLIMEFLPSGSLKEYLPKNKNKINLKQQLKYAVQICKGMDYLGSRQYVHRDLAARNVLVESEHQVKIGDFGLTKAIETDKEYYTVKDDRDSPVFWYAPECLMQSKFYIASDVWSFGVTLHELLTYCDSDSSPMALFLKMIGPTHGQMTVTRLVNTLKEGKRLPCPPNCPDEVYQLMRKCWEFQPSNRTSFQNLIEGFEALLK
TYK2, sequence (P29597 whole entry): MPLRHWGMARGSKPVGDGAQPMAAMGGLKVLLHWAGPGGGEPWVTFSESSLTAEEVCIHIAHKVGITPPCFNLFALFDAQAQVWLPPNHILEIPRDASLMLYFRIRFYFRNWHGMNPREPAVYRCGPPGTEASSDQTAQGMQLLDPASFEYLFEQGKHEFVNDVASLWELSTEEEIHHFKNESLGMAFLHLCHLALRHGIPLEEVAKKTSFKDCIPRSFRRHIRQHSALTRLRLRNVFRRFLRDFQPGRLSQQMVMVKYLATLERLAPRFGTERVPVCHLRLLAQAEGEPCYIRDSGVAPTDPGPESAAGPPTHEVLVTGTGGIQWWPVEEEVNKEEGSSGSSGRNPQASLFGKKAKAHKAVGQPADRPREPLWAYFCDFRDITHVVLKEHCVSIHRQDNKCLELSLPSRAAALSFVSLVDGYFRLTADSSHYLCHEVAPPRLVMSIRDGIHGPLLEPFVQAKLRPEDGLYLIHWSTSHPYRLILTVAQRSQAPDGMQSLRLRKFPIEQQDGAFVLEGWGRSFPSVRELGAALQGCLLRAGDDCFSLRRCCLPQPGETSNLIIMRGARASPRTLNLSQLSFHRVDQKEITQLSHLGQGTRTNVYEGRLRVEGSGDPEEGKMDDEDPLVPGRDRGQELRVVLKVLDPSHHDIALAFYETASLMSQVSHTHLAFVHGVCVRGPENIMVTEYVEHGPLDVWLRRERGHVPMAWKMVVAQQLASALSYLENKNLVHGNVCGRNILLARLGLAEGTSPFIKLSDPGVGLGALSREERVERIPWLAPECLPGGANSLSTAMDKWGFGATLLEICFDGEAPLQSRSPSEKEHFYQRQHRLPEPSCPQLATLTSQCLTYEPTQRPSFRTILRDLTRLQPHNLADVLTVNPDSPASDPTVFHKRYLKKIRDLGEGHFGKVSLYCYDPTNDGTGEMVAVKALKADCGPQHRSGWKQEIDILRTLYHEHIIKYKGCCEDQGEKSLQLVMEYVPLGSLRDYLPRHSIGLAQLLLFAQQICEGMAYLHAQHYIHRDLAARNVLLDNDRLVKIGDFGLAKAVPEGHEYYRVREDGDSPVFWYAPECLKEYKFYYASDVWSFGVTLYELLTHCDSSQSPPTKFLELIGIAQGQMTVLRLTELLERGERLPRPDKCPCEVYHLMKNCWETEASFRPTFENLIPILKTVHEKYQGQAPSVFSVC
JAK2, sequence (O60674 whole entry): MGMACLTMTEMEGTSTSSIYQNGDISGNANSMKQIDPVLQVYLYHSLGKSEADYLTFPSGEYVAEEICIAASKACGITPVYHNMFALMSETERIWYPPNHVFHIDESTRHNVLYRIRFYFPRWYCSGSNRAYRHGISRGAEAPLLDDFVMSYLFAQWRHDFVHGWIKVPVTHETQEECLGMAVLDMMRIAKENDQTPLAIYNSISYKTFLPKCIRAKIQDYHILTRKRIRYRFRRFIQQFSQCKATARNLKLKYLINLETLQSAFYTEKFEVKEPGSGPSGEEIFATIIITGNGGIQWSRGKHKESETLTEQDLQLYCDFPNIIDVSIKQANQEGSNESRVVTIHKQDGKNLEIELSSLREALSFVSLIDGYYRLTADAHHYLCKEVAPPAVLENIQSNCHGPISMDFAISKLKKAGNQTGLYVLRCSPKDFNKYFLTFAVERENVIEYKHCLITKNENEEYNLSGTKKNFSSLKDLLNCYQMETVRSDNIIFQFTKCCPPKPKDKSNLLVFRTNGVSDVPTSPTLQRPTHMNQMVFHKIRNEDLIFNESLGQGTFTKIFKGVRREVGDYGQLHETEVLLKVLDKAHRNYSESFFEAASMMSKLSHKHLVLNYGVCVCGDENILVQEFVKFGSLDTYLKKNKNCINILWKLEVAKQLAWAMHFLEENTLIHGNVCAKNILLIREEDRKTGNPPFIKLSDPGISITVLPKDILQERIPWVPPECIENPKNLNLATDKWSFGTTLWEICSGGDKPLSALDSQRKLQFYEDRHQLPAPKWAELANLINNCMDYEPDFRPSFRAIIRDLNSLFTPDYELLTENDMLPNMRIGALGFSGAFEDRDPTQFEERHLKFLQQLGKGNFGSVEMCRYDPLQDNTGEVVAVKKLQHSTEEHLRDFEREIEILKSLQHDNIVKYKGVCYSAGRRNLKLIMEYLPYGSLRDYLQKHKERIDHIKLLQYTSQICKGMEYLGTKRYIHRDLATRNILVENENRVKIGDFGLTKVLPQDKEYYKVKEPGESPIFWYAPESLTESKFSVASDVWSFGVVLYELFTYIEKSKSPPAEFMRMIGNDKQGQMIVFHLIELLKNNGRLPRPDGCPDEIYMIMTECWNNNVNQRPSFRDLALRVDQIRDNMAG

| inhibitory activity on TYK2 (in words) [1] | IC50 [1] | F [2] | AUC(0-t) ([2]; 2 mg/kg, intravenous injection) | MRT inf ([2]; 2 mg/kg, intravenous injection) | clearance ([2]; 2 mg/kg, intravenous injection) | half-life ([2]; 2 mg/kg, intravenous injection) | Vd ([2]; 2 mg/kg, intravenous injection) | AUC(0-t) ([2]; 10 mg/kg, oral administration) | Cmax ([2]; 10 mg/kg, oral administration) | Tmax ([2]; 10 mg/kg, oral administration) | half-life ([2]; 10 mg/kg, oral administration) | inhibitory effect on kinase JAK2 (in words) [3] | IC50 [3] | inhibitory activity on JAK3 (in words) [4] | IC50 [4] | inhibitory effect on kinase JAK1 (in words) [5] | IC50 [5] | SMILES |
| --- | --- | --- | --- | --- | --- | --- | --- | --- | --- | --- | --- | --- | --- | --- | --- | --- | --- | --- |
| weak inhibitory activity | 209 nM | 99.4% | 1200 ng·h/mL | 63.6 min | 27.3 mL/min/kg | 83.4 min | 1.74 L/kg | 5950 ng·h/mL | 3380 ng/mL | 15 min | 84 min | strong inhibitory effect | 12 nM | weak inhibitory activity | 423 nM |  |  | CCS(=O)(=O)N1CC(CC#N)(n2cc(-c3ncnc4[nH]ncc34)cn2)C1 [Compound Ip] |
| weak inhibitory activity | 2660 nM | 37.9% | 900 ng·h/mL | 35.8 min | 37.3 mL/min/kg | 50 min | 1.32 L/kg | 1710 ng·h/mL | 904 ng/mL | 60 min | 59.2 min | strong inhibitory effect | 126 nM | weak inhibitory activity | 3770 nM | strong inhibitory effect | 39 nM | N#CCC1(n2cc(-c3ncnc4[nH]ncc34)cn2)CN(C2CCN(C(=O)c3ccnc(C(F)(F)F)c3F)CC2)C1 [Compound Ii] |
| weak inhibitory activity | 1230 nM | 51.7% | 883 ng·h/mL | 26.8 min | 37.5 mL/min/kg | 23.4 min | 0.997 L/kg | 2290 ng·h/mL | 1310 ng/mL | 22.5 min | 70.8 min | strong inhibitory effect | 47 nM | weak inhibitory activity | 2060 nM | strong inhibitory effect | 58 nM | CCS(=O)(=O)N1CCC(N2CC(CC#N)(n3cc(-c4ncnc5[nH]ncc45)cn3)C2)CC1 [Compound Ig] |

— US12065441B2, “Pyrazolopyrimidine derivative, use thereof and pharmaceutical composition” (GENGLE THERAPEUTICS, INC., priority 2018, dated 2024)
